This assay concerns the target human PRMT5/MEP50 (Homo sapiens (Human), UniProt O14744). In words: PRMT5 chemiluminescent assay. The class given is biochemical. The settings on record: human PRMT5/MEP50 expressed in HEK293 cells; biotinylated histone peptides; Histone H4 monomethyl R3 antibody; chemiluminescent readout. As for the experimental part:
A PRMT5 chemiluminescent assay was used to measure the IC50 activity of PRMT5 of the compounds of Examples 1A to 7 above. Biotinylated histone peptides were synthesized and attached to 384-well plates. Compound serial dilutions were performed and added to the assay plate. Histone H4 monomethyl R3 antibody was obtained from Abcam. A master mix for each well was prepared and human PRMT5/MEP50 (expressed in HEK293 cells) diluted in assay buffer to a concentration of 5 ng/μL. The reaction was incubated and slowly rotated for 60 minutes at the point of PRMT5/MEP50 addition. The supernatant from the wells was removed and blocking buffer was added to each well and rotated for 10 minutes. The primary antibody was diluted and added to every well for 60 minutes, before it was removed and the wells washed. The horse raddish peroxidase (HRP)-coupled secondary antibody was diluted and added to each well with an incubation time of 30 minutes. The HRP chemiluminescent substrate was added to every well. The plate was read on a Flourstar Omega BMG Labtech instrument (Ortenberg, Germany) and the analysis of IC50 was performed using the Flourstar Omega BMG Labtech software.
Sequence of human PRMT5/MEP50 (O14744 whole entry): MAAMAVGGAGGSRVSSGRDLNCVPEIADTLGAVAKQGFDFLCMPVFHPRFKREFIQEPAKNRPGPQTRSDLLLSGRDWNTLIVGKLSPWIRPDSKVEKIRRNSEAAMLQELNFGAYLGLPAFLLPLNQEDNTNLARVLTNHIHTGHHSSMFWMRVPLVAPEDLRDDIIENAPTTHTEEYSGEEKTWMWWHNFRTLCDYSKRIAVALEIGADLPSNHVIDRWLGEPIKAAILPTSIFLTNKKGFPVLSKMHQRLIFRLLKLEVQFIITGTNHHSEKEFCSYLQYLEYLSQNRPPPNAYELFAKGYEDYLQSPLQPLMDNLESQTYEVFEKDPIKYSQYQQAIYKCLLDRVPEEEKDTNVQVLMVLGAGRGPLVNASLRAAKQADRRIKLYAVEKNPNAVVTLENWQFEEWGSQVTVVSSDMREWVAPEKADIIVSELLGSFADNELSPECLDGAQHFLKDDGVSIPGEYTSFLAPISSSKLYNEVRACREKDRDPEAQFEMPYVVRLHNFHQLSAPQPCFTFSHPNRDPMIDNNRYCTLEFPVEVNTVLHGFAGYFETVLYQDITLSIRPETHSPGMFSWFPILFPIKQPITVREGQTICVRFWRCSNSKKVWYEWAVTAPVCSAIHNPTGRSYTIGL
Sequence of human PRMT5/MEP50 (Q9BQA1 whole entry partner): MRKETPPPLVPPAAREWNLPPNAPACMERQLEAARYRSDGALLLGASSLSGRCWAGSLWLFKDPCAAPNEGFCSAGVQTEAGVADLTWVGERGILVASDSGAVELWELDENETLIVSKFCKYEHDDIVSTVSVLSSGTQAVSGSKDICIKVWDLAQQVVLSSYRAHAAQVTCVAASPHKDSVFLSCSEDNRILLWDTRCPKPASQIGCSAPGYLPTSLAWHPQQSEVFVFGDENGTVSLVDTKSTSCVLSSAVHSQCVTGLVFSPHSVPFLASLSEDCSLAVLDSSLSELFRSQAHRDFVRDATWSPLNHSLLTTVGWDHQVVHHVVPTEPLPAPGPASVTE
The molecule `Cn1cc(C2CCCN(C(=O)NC[C@H](O)CN3CCc4ccccc4C3)C2)ccc1=O` (stereo partly drawn) [Example 1BR, N-((S)-3-(3,4-dihydroisoquinolin-2(1H)-yl)-2-hydroxypropyl)-3-(1-methyl-6-oxo-1,6-dihydropyridin-3-yl)piperidine-1-carboxamide] displayed an IC50 of 490 nM.
Take `O=C(NC[C@H](O)CN1CCc2ccccc2C1)N1CCCOCC1` [Example 1BP, (S)-N-(3-(3,4-dihydroisoquinolin-2(1H)-yl)-2-hydroxypropyl)-1,4-oxazepane-4-carboxamide]: the IC50 was 7330 nM.
The same measure for `O=C(OCC(O)CN1CCc2ccccc2C1)N1CCC(Cc2ccccc2)CC1` (stereo not shown) [Example 4D, 3-(3,4-dihydroisoquinolin-2(1H)-yl)-2-hydroxypropyl 4-benzylpiperidine-1-carboxylate]: 173 nM; for `O=C(OCC(O)CN1CCc2ccsc2C1)N1CCC(c2ccccc2)C1` (stereo not shown) [Example 4AF, 3-(4,7-dihydrothieno[2,3-c]pyridin-6(5H)-yl)-2-hydroxypropyl 3-phenylpyrrolidine-1-carboxylate]: 21 nM.
As for `O=C(NC[C@@H](O)CN1CCc2ccccc2C1)N1CCC(C(=O)N2C3CCC2COC3)CC1` [Example 1BE, 4-(3-oxa-8-azabicyclo[3.2.1]octane-8-carbonyl)-N-((R)-3-(3,4-dihydroisoquinolin-2(1H)-yl)-2-hydroxypropyl)piperidine-1-carboxamide], it took 3080 nM to reach half-maximal inhibition (IC50).
On to `O=C(NC[C@H](O)CN1CCc2ccccc2C1)N1CCCC(N2CCOCC2)C1` (stereo partly drawn) [Example 1BW, N-((S)-3-(3,4-dihydroisoquinolin-2(1H)-yl)-2-hydroxypropyl)-3-morpholinopiperidine-1-carboxamide], for which the IC50 was 2860 nM.
The figure for `O=C(NC[C@H](O)CN1CCc2ccccc2C1)N1CCCC(c2cnccn2)C1` (stereo partly drawn) [Example 1BS, N-((S)-3-(3,4-dihydroisoquinolin-2(1H)-yl)-2-hydroxypropyl)-3-(pyrazin-2-yl)piperidine-1-carboxamide] is 237 nM; for `CC(=O)N1CCCN(C(=O)OCC(O)CN2CCc3ccccc3C2)CC1` (stereo not shown) [Example 4V, 3-(3,4-dihydroisoquinolin-2(1H)-yl)-2-hydroxypropyl 4-acetyl-1,4-diazepane-1-carboxylate] it is 38900 nM; for `O=C(NCC(O)CN1CCc2ccccc2C1)N1CC(C(=O)N2C3CCC2COC3)C1` (stereo not shown) [Example 1X, 3-(3-oxa-8-azabicyclo[3.2.1]octane-8-carbonyl)-N-(3-(3,4-dihydroisoquinolin-2(1H)-yl)-2-hydroxypropyl)azetidine-1-carboxamide] it is 376 nM.
The figure for `O=C(NCC(O)CN1CCc2ccccc2C1)N1CCCC(Nc2ccncc2)C1` (stereo not shown) [Example 1P, N-(3-(3,4-dihydroisoquinolin-2(1H)-yl)-2-hydroxypropyl)-3-(pyridin-4-ylamino)piperidine-1-carboxamide] is 221 nM; for `O=C(NC[C@@H](O)CN1CCc2ccccc2C1)N1CCc2ccccc2C1` [Example 1AM, (R)-N-(3-(3,4-dihydroisoquinolin-2(1H)-yl)-2-hydroxypropyl)-3,4-dihydroisoquinoline-2(1H)-carboxamide] it is 1500 nM.
For the molecule `O=C(OC[C@@H](O)CN1CCc2ccccc2C1)N1CCc2ccccc2C1` [Example 4H, (S)-3-(3,4-dihydroisoquinolin-2(1H)-yl)-2-hydroxypropyl 3,4-dihydroisoquinoline-2(1H)-carboxylate], the IC50 came out at 539 nM.
The figure for `O=C(NCC(O)CN1CCc2ccccc2C1)N1CCCC(O)C1` (stereo not shown) [Example 1CK, N-(3-(3,4-dihydroisoquinolin-2(1H)-yl)-2-hydroxypropyl)-3-hydroxypiperidine-1-carboxamide] is 329 nM; for `O=C(NCC(O)CN1CCc2sccc2C1)N1CCc2ccccc2C1` (stereo not shown) [Example 1AA, N-(3-(6,7-dihydrothieno[3,2-c]pyridin-5(4H)-yl)-2-hydroxypropyl)-3,4-dihydroisoquinoline-2(1H)-carboxamide] it is 342 nM; for `O=C(NCC(O)CN1CCc2ccccc2C1)N1CCC(c2ccccc2)CC1` (stereo not shown) [Example 1F, N-[2-hydroxy-3-(1,2,3,4-tetrahydroisoquinolin-2-yl)propyl]-4-phenylpiperidine-1-carboxamide] it is 457 nM.
On to `O=C(NCCCN1CCc2ccccc2C1)N1CCCC(c2ccccc2)C1` (stereo not shown) [Example 6B, N-(3-(3,4-dihydroisoquinolin-2(1H)-yl)propyl)-3-phenylpiperidine-1-carboxamide], for which it took 1700 nM to reach half-maximal inhibition (IC50).
The figure for `O=C(OCC(O)CN1CCc2ccccc2C1)N1CCS(=O)(=O)CC1` (stereo not shown) [Example 4N, 3-(3,4-dihydroisoquinolin-2(1H)-yl)-2-hydroxypropyl thiomorpholine-4-carboxylate 1,1-dioxide] is 213000 nM; for `CN1CCN(C2CCCN(C(=O)NC[C@H](O)CN3CCc4ccccc4C3)C2)CC1` (stereo partly drawn) [Example 1BY, N-((S)-3-(3,4-dihydroisoquinolin-2(1H)-yl)-2-hydroxypropyl)-3-(4-methylpiperazin-1-yl)piperidine-1-carboxamide] it is 2650 nM; for `O=C(NC[C@H](O)CN1CCc2ccccc2C1)N1CCC(c2ccccn2)C1` (stereo partly drawn) [Example 1BA, N-((S)-3-(3,4-dihydroisoquinolin-2(1H)-yl)-2-hydroxypropyl)-3-(pyridin-2-yl)pyrrolidine-1-carboxamide] it is 97 nM.
The figure for `Cc1cc(C2CCCN(C(=O)NC[C@H](O)CN3CCc4ccccc4C3)C2)ccn1` (stereo partly drawn) [Example 1BT, N-((S)-3-(3,4-dihydroisoquinolin-2(1H)-yl)-2-hydroxypropyl)-3-(2-methylpyridin-4-yl)piperidine-1-carboxamide] is 127 nM; for `O=C(NC[C@H](O)CN1CCc2ccccc2C1)N1CCCC(c2cccnc2)C1` (stereo partly drawn) [Example 1BV, N-((S)-3-(3,4-dihydroisoquinolin-2(1H)-yl)-2-hydroxypropyl)-3-(pyridin-3-yl)piperidine-1-carboxamide] it is 57 nM.
The same measure for `O=C(NC[C@H](O)CN1CCc2ccccc2C1)N1CCCC(O)(c2ccccc2)C1` (stereo partly drawn) [Example 1BH, N-((S)-3-(3,4-dihydroisoquinolin-2(1H)-yl)-2-hydroxypropyl)-3-hydroxy-3-phenylpiperidine-1-carboxamide]: 167 nM.
In turn, `O=C(NC[C@@H](O)CN1CCc2ccccc2C1)N1CCC[C@@H](c2ccccc2)C1` [Example 1AI, (S)-N-((R)-3-(3,4-dihydroisoquinolin-2(1H)-yl)-2-hydroxypropyl)-3-phenylpiperidine-1-carboxamide] registered an IC50 of 3220 nM.
The figure for `O=C(NC[C@H](O)CN1CCc2ccccc2C1)N1CCC[C@H](c2ccccn2)C1` (single isomer, unassigned) [Example 5F, (S)-N-((S)-3-(3,4-dihydroisoquinolin-2(1H)-yl)-2-hydroxypropyl)-3-(pyridin-2-yl)piperidine-1-carboxamide or (R)-N-((S)-3-(3,4-dihydroisoquinolin-2(1H)-yl)-2-hydroxypropyl)-3-(pyridin-2-yl)piperidine-1-carboxamide] is 97 nM; for `CN(C)C(=O)C1CN(C(=O)OCC(O)CN2CCc3ccccc3C2)C1` (stereo not shown) [Example 4S, 3-(3,4-dihydroisoquinolin-2(1H)-yl)-2-hydroxypropyl 3-(dimethylcarbamoyl)azetidine-1-carboxylate] it is 5030 nM.
